In ChEMBL document CHEMBL1250527, “Chalcone glycosides isolated from aerial parts of Brassica rapa L. 'hidabeni' suppress antigen-stimulated degranulation in rat basophilic leukemia RBL-2H3 cells” (Bioorg Med Chem, 2010):
Active and inactive are the calls of the source. No cut-off for these calls is given here.

What was measured:
RBL-2H3 [1] = experiment: Antiallergic activity against antigen-IgE-mediated degranulation in rat RBL2H3 cells assessed as inhibition of DNP-BSA-induced intracellular pathway at 50 uM after 30 mins; type: functional, cell-based
RBL-2H3 [2] = experiment: Antiallergic activity against antigen-IgE-mediated degranulation in rat RBL2H3 cells assessed as inhibition of DNP-BSA-induced beta-hexosaminidase release at 10 to 100 uM; type: functional, cell-based
RBL-2H3 [3] = experiment: Antiallergic activity against antigen-IgE-mediated degranulation in rat RBL2H3 cells assessed as reduction in DNP-BSA-induced intracellular calcium level at 50 uM after 30 mins; type: functional, cell-based
RBL-2H3 [4] = experiment: Antiallergic activity against antigen-IgE-mediated degranulation in rat RBL2H3 cells assessed as reduction in DNP-BSA-induced ROS production at 50 uM after 30 mins; type: functional, cell-based
RBL-2H3 [5] = experiment: Antioxidant activity […] assessed as DPPH radical scavenging activity; type: functional
RBL-2H3 [6] = experiment: Antiallergic activity against antigen-IgE-mediated degranulation in rat RBL2H3 cells assessed as inhibition of translocation of cytosolic subunit of NADPH oxidase by immunofluorescence technique; type: functional, cell-based
RBL-2H3 [7] = experiment: Antiallergic activity against antigen-IgE-mediated degranulation in rat RBL2H3 cells assessed as inhibition of translocation of p47phox cytosolic subunit of NADPH oxidase by immunofluorescence technique; type: functional, cell-based
RBL-2H3 [8] = experiment: Inhibition of NOX-mediated calcium in rat RBL2H3 cells mobilization assessed as antigen-IgE-mediated degranulation; type: cell-based

Row | Compound | Activity (RBL-2H3 [1]) | Activity (RBL-2H3 [2]) | Activity (RBL-2H3 [3]) | Activity (RBL-2H3 [4]) | Activity (RBL-2H3 [5]) | Activity (RBL-2H3 [6]) | Activity (RBL-2H3 [7]) | inhibition (RBL-2H3 [8])
1 | COc1cc(C(=O)/C=C/c2ccc(O)cc2)ccc1O[C@@H]1O[C@H](CO)[C@@H](O)[C@H](O)[C@H]1O | Active | Active | Active | Active | inactive | Active | Active | Active
2 | COc1ccc(/C=C/C(=O)c2ccc(O[C@@H]3O[C@H](CO)[C@@H](O)[C@H](O)[C@H]3O)c(OC)c2)cc1 | Active | Active | Active | Active | inactive | Active | Active | Active
